In one assay the test system is HIV-1MDR-JSL. The format is cell-based. To be noted: PHA-PBMC.
A further assay relates to HIV-1MDR-B. Type of assay: cell-based. To be noted: PHA-PBMC.
A further assay concerns MDR/C. The format is cell-based, HIV-1. To be noted: PHA-PBMC.
A further assay has as its system MDR/A. Type of assay: cell-based, HIV-1. To be noted: PHA-PBMC.
The subject of the next assay is HIV-1MDR-G. Type of assay: cell-based. To be noted: PHA-PBMC.
The subject of a further assay is HIV-1MDR-MM. The format is cell-based. To be noted: PHA-PBMC.
For the next assay, the system named is HIV-1MDR-TM. The format is cell-based. To be noted: PHA-PBMC.
In another assay the target is HIV-1 protease (Human immunodeficiency virus type 1 group M subtype B, UniProt P04585). Briefly: HIV-1 protease enzyme inhibitory assay. Type of assay: biochemical.
Assay [1] has as its system HIV-1ERS104pre (wild-type). Briefly: Antiviral assay in PHA-PBMC, p24 Gag production, HIV-1ERS104pre. The format is cell-based. To be noted: PBMC versus MT-2 cells.

Where only a bound is given, the exact number is not on record here.

Regarding `CC(C)(C)NC(=O)[C@@H]1CN(Cc2cccnc2)CCN1C[C@@H](O)C[C@@H](Cc1ccccc1)C(=O)N[C@H]1c2ccccc2C[C@H]1O.O` [IDV, Indinavir], the “number in parentheses: fold change of IC50 versus ERS104pre (wild-type)” value (“number in parentheses: fold change” for short) with HIV-1MDR-JSL is recorded as over 38; with HIV-1MDR-B, over 38; with MDR/C, over 38; in the assay with MDR/A, over 38; in the assay with HIV-1MDR-G, 11; with HIV-1MDR-MM, over 38. For the same compound, the “number in parentheses: fold change” value in the assay with HIV-1MDR-TM is reported as over 38.

In the case of `COc1ccc(S(=O)(=O)N(CC(C)C)C[C@@H](O)[C@H](Cc2ccccc2)NC(=O)O[C@H]2CCCOCC2)cc1` [Inhibitor 3f, (1S,2R)-{1-Benzyl-2-hydroxy-3-[isobutyl(4-methoxybenzenesulfonyl)amino]propyl}carbamic acid (S)-oxepan-4-yl ester], the “reduction in enzymatic inhibitory potency with respect to 3d” value at HIV-1 protease was about 30 fold.

For `CC(C)c1nc(CN(C)C(=O)N[C@H](C(=O)N[C@@H](Cc2ccccc2)C[C@H](O)[C@H](Cc2ccccc2)NC(=O)OCc2cncs2)C(C)C)cs1` [RTV], the “number in parentheses: fold change” value in the assay with HIV-1MDR-JSL, in the assay with HIV-1MDR-B, in the assay on MDR/C, in the assay with MDR/A, in the assay with HIV-1MDR-G and with HIV-1MDR-MM was over 29 each time. Besides, the “number in parentheses: fold change” value in the assay on HIV-1MDR-TM was over 29.

For `COc1ccc(S(=O)(=O)N(CC(C)C)C[C@@H](O)[C@H](Cc2ccccc2)NC(=O)OC2COCCS(=O)(=O)CCOC2)cc1` [Inhibitor 3l, (1S,2R)-{1-Benzyl-2-hydroxy-3-[isobutyl(4-methoxybenzenesulfonyl)amino]propyl}carbamic acid 3,9-dioxa-6-thiacyclodecan-1-yl 6,6-dioxide ester], the “potency change compared to 3i (enzyme Ki)” value (shortened to “potency change”) at HIV-1 protease is recorded as 9 fold.

With `COc1ccc(S(=O)(=O)N(CC(C)C)C[C@@H](O)[C@H](Cc2ccccc2)NC(=O)OC2COCOC2)cc1` [Inhibitor 3h, (1S,2R)-{1-Benzyl-2-hydroxy-3-[isobutyl(4-methoxybenzenesulfonyl)amino]propyl}carbamic acid 1,3-dioxan-5-yl ester], the “number in parentheses: fold change” value in the assay on HIV-1MDR-JSL was 55; with HIV-1MDR-B it was 38; in the assay on MDR/C it was 27; in the assay on MDR/A, 2; in the assay on HIV-1MDR-G it was 50; in the assay on HIV-1MDR-MM, 5. The “number in parentheses: fold change” value in the assay with HIV-1MDR-TM is 10.

Turning to `COc1ccc(S(=O)(=O)N(CC(C)C)C[C@@H](O)[C@H](Cc2ccccc2)NC(=O)OC2COCCN(C)CCOC2)cc1` [Inhibitor 3m, (1S,2R)-{1-Benzyl-2-hydroxy-3-[isobutyl(4-methoxybenzenesulfonyl)amino]propyl}carbamic acid N-methyl-1,7-dioxa-4-azocyclodecan-9-yl ester], on HIV-1 protease, the “potency change” value was “no change in inhibitory activity”.

For the compound `COc1ccc(S(=O)(=O)N(CC(C)C)C[C@@H](O)[C@H](Cc2ccccc2)NC(=O)O[C@@H]2CCCCOC2)cc1` [Inhibitor 3e, (1S,2R)-{1-Benzyl-2-hydroxy-3-[isobutyl(4-methoxybenzenesulfonyl)amino]propyl}carbamic acid (R)-oxepan-3-yl ester], the “reduction in enzymatic inhibitory potency with respect to 3d” value at HIV-1 protease is about 30 fold.

With `COc1ccc(S(=O)(=O)N(CC(C)C)C[C@@H](O)[C@H](Cc2ccccc2)NC(=O)O[C@@H]2CCOCOC2)cc1` [Inhibitor 3d, (1S,2R)-{1-Benzyl-2-hydroxy-3-[isobutyl(4-methoxybenzenesulfonyl)amino]propyl}carbamic acid (1R)-3,5-dioxacycloheptan-1-yl ester], the “factor by which values in PBMCs were greater than those with MT-2 cells” value in assay [1] is recorded as “about 4”.

For `COc1ccc(S(=O)(=O)N(CC(C)C)C[C@@H](O)[C@H](Cc2ccccc2)NC(=O)OC2COCCOCOCCOC2)cc1` [Inhibitor 3k, (1S,2R)-{1-Benzyl-2-hydroxy-3-[isobutyl(4-methoxybenzenesulfonyl)amino]propyl}carbamic acid 3,6,8,11-tetraoxacyclododecan-1-yl ester], the “potency change” value on HIV-1 protease is on record as “more than 2 fold”. The “potency enhancement compared to inhibitor 3j (enzyme Ki)” value at HIV-1 protease (compared to 3j) is given as 5 fold.

The values above are taken from paper PMC2812926 (Journal of medicinal chemistry, 2008).
